According to patent US12391737B2, “Soluble NPY2 receptor agonists” (Boehringer Ingelheim International GmbH, priority 2020, dated 2025):
*1 amine or outer side, *2 acyl side, *3 side chain or, on linkers, in order; H or OH if unused. Where a SMILES comes first, the peptide text is derived from it. Side-chain parts run from the residue outwards. The star is where a group is joined. C18 diacid = O=C(O)CCCCCCCCCCCCCCCCC(=O)*; γGlu = O=C(O)[C@H](CCC(=O)[*:2])N[*:1]; Isovaleryl = CC(C)CC(=O)*; Ahx = NCCCCCC(=O)O

How the values were obtained:
Solubility determination = conditions: for Sol6: pH 6; for Sol7: pH 7
Method in brief: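 Solubility is derived from the ratio of reversed-phase peak areas, filtered sample over a control dissolved at 1 mg/ml in 50% acetonitrile. Peptides are agitated for 2 hours at room temperature in 0.1 M sodium diphosphate at pH 6.4 or 7.0, aiming at 10 mg/ml.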

[1] = biological target: T1, Human Neuropeptide Y2 Receptor (Homo sapiens, UniProt P49146); assay: Radioligand binding competition assay (RLB); conditions: Table 3, 125I-PYY(1-36) competition; read-out: Ki
T1 construct: purchased CHEMICON HTS066M
T1 sequence (P49146 1-381): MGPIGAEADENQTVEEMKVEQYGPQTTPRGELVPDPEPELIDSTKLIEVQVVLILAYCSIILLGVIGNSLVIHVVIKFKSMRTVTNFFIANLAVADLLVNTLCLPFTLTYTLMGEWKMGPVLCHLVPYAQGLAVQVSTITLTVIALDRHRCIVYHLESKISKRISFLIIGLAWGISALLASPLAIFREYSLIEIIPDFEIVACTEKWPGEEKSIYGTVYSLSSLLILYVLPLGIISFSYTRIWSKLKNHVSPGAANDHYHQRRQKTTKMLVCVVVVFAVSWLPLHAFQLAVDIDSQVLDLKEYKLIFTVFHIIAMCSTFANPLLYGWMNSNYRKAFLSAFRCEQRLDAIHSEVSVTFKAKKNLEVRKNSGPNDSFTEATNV
Method in brief: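 Peptides were serially diluted from 1 mM DMSO stocks and competed for radioligand binding to receptor membranes (0.5 μg/well) over 2 h at room temperature, pH 7.4 HEPES buffer. Bound radioactivity on filters was counted by scintillation, and IC50 was derived by nonlinear regression.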

Structure (SMILES) | Sol6 (Solubility determination) [mg/mL] | Sol7 (Solubility determination) [mg/mL] | Ki [1] [nM]
CC(C)CC(=O)N[C@@H](C)C(=O)N1CCC[C@H]1C(=O)N[C@@H](CCC(=O)O)C(=O)N[C@@H](CCCCNC(=O)CCCCCNC(=O)CC[C@H](NC(=O)CCCCCCCCCCCCCCCCC(=O)O)C(=O)O)C(=O)N1CCC[C@H]1C(=O)N[C@@H](CCC(=O)O)C(=O)N[C@@H](CCC(=O)O)C(=O)N[C@@H](CC(=O)O)C(=O)N[C@@H](C)C(=O)N[C@H](C(=O)N1CCC[C@H]1C(=O)N[C@@H](CCC(=O)O)C(=O)N[C@@H](CCC(=O)O)C(=O)N[C@@H](CC(C)C)C(=O)N[C@@H](CCC(N)=O)C(=O)N[C@@H](CCCNC(=N)N)C(=O)N[C@@H](Cc1ccc(O)cc1)C(=O)N[C@@H](Cc1ccc(O)cc1)C(=O)N[C@H](C(=O)N[C@@H](CO)C(=O)N[C@@H](CC(C)C)C(=O)N[C@@H](CCCNC(=N)N)C(=O)N[C@@H](Cc1c[nH]cn1)C(=O)N[C@@H](Cc1ccc(O)cc1)C(=O)N[C@@H](Cc1ccc(O)cc1)C(=O)N[C@@H](CC(N)=O)C(=O)N[C@@H](Cc1c[nH]c2ccccc12)C(=O)N[C@@H](CC(C)C)C(=O)N[C@@H](CC(C)C)C(=O)N[C@@H](CCCNC(=N)N)C(=O)N[C@@H](CCC(N)=O)C(=O)N[C@@H](CCCNC(=N)N)C(=O)N[C@@H](Cc1ccc(O)cc1)C(N)=O)C(C)C)[C@@H](C)O [Compound 137, N{alpha-4}-(3-methylbutanoyl)-N{epsilon-7}-(6-[(4S)-4-carboxy-4-(17-carboxyheptadecanamido)butanamido]hexanoyl)-[4A,7K,9E,13T,18Q,22V,28Y,30W,31L,32L]-hPYY(4-36)] | >10.0 | >10.0 | 49.6
CC(C)CC(=O)N[C@@H](C)C(=O)N1CCC[C@H]1C(=O)N[C@@H](CCC(=O)O)C(=O)N[C@@H](CCCCNC(=O)CCCCCNC(=O)CC[C@H](NC(=O)CCCCCCCCCCCCCCCCC(=O)O)C(=O)O)C(=O)N1CCC[C@H]1C(=O)N[C@@H](CCC(=O)O)C(=O)N[C@@H](CCC(=O)O)C(=O)N[C@@H](CC(=O)O)C(=O)N[C@@H](C)C(=O)N[C@@H](CCC(=O)O)C(=O)N1CCC[C@H]1C(=O)N[C@@H](CCC(=O)O)C(=O)N[C@@H](CCC(=O)O)C(=O)N[C@@H](CC(C)C)C(=O)N[C@@H](CCC(N)=O)C(=O)N[C@@H](CCC(=O)O)C(=O)N[C@@H](Cc1ccc(O)cc1)C(=O)N[C@@H](Cc1ccc(O)cc1)C(=O)N[C@H](C(=O)N[C@@H](CO)C(=O)N[C@@H](CC(C)C)C(=O)N[C@@H](CCCNC(=N)N)C(=O)N[C@@H](Cc1c[nH]cn1)C(=O)N[C@@H](Cc1ccc(O)cc1)C(=O)N[C@@H](Cc1ccc(O)cc1)C(=O)N[C@@H](CC(N)=O)C(=O)N[C@@H](Cc1c[nH]c2ccccc12)C(=O)N[C@@H](CC(C)C)C(=O)N[C@H](C(=O)N[C@@H](CCCNC(=N)N)C(=O)N[C@@H](CCC(N)=O)C(=O)N[C@@H](CCCNC(=N)N)C(=O)N[C@@H](Cc1ccc(O)cc1)C(N)=O)[C@@H](C)O)C(C)C [Compound 138, N{alpha-4}-(3-methylbutanoyl)-N{epsilon-7}-(6-[(4S)-4-carboxy-4-(17-carboxyheptadecanamido)butanamido]hexanoyl)-[4A,7K,9E,13E,18Q,19E,22V,28Y,30W,31L]-hPYY(4-36)] | 9.9 | 9.5 | 12.5
CC(C)CC(=O)N[C@@H](C)C(=O)N1CCC[C@H]1C(=O)N[C@@H](CCC(=O)O)C(=O)N[C@@H](CCCCNC(=O)CCCCCNC(=O)CC[C@H](NC(=O)CCCCCCCCCCCCCCCCC(=O)O)C(=O)O)C(=O)N1CCC[C@H]1C(=O)N[C@@H](CCC(=O)O)C(=O)N[C@@H](CCC(=O)O)C(=O)N[C@@H](CCC(=O)O)C(=O)N[C@@H](C)C(=O)N[C@@H](CO)C(=O)N1CCC[C@H]1C(=O)N[C@@H](C)C(=O)N[C@@H](CCC(=O)O)C(=O)N[C@@H](CC(C)C)C(=O)N[C@@H](CCC(N)=O)C(=O)N[C@@H](CCCNC(=N)N)C(=O)N[C@@H](Cc1ccc(O)cc1)C(=O)N[C@@H](Cc1ccc(O)cc1)C(=O)N[C@H](C(=O)N[C@@H](CO)C(=O)N[C@@H](CC(C)C)C(=O)N[C@@H](CCCNC(=N)N)C(=O)N[C@@H](Cc1c[nH]cn1)C(=O)N[C@@H](Cc1ccc(O)cc1)C(=O)N[C@@H](Cc1ccc(O)cc1)C(=O)N[C@@H](CC(N)=O)C(=O)N[C@@H](Cc1c[nH]c2ccccc12)C(=O)N[C@@H](CC(C)C)C(=O)N[C@H](C(=O)N[C@@H](CCCNC(=N)N)C(=O)N[C@@H](CCC(N)=O)C(=O)N[C@@H](CCCNC(=N)N)C(=O)N[C@@H](Cc1ccc(O)cc1)C(N)=O)[C@@H](C)O)C(C)C [Compound 139, N{alpha-4}-(3-methylbutanoyl)-N{epsilon-7}-(6-[(4S)-4-carboxy-4-(17-carboxyheptadecanamido)butanamido]hexanoyl)-[4A,7K,9E,11E,15A,18Q,22V,28Y,30W,31L]-hPYY(4-36)] (Isovaleryl-APEK([Ahx-γGlu-C18 diacid])PEEEASPAELQRYYVSLRHYYNWLTRQRY-NH2) | 7.3 | 8.8 | 3.6
CC(C)CC(=O)N[C@@H](C)C(=O)N1CCC[C@H]1C(=O)N[C@@H](CCC(=O)O)C(=O)N[C@@H](CCCCNC(=O)CCCCCNC(=O)CC[C@H](NC(=O)CCCCCCCCCCCCCCCCC(=O)O)C(=O)O)C(=O)N1CCC[C@H]1C(=O)N[C@@H](CCC(=O)O)C(=O)N[C@@H](CCC(=O)O)C(=O)N[C@@H](CC(=O)O)C(=O)N[C@@H](C)C(=O)N[C@H](C(=O)N1CCC[C@H]1C(=O)N[C@@H](CCC(=O)O)C(=O)N[C@@H](CCC(=O)O)C(=O)N[C@@H](CC(C)C)C(=O)N[C@@H](CCC(N)=O)C(=O)N[C@@H](CO)C(=O)N[C@@H](Cc1ccc(O)cc1)C(=O)N[C@@H](Cc1ccc(O)cc1)C(=O)N[C@H](C(=O)N[C@@H](CO)C(=O)N[C@@H](CC(C)C)C(=O)N[C@@H](CCCNC(=N)N)C(=O)N[C@@H](Cc1c[nH]cn1)C(=O)N[C@@H](Cc1ccc(O)cc1)C(=O)N[C@@H](Cc1ccc(O)cc1)C(=O)N[C@@H](CC(N)=O)C(=O)N[C@@H](Cc1c[nH]c2ccccc12)C(=O)N[C@@H](CC(C)C)C(=O)N[C@H](C(=O)N[C@@H](CCCNC(=N)N)C(=O)N[C@@H](CCC(N)=O)C(=O)N[C@@H](CCCNC(=N)N)C(=O)N[C@@H](Cc1ccc(O)cc1)C(N)=O)[C@@H](C)O)C(C)C)[C@@H](C)O [Compound 141, N{alpha-4}-(3-methylbutanoyl)-N{epsilon-7}-(6-[(4S)-4-carboxy-4-(17-carboxyheptadecanamido)butanamido]hexanoyl)-[4A,7K,9E,13T,18Q,19S,22V,28Y,30W,31L]-hPYY(4-36)] | 9.6 | 9.7 | 8.17
CC[C@H](C)[C@H](NC(=O)[C@H](CCC(=O)O)NC(=O)[C@H](CCC(=O)O)NC(=O)[C@@H]1CCCN1C(=O)[C@H](CC(C)C)NC(=O)[C@H](C)NC(=O)[C@H](CC(=O)O)NC(=O)[C@H](CCC(=O)O)NC(=O)[C@H](CCC(=O)O)NC(=O)[C@@H]1CCCN1C(=O)[C@H](CCCCNC(=O)CCCCCNC(=O)CC[C@H](NC(=O)CCCCCCCCCCCCCCCCC(=O)O)C(=O)O)NC(=O)[C@H](CCC(=O)O)NC(=O)[C@@H]1CCCN1C(=O)[C@H](C)NC(=O)CC(C)C)C(=O)N[C@@H](CCC(N)=O)C(=O)N[C@@H](CCCNC(=N)N)C(=O)N[C@@H](Cc1ccc(O)cc1)C(=O)N[C@@H](Cc1ccc(O)cc1)C(=O)N[C@H](C(=O)N[C@@H](CO)C(=O)N[C@@H](CC(C)C)C(=O)N[C@@H](CCCNC(=N)N)C(=O)N[C@@H](Cc1c[nH]cn1)C(=O)N[C@@H](Cc1ccc(O)cc1)C(=O)N[C@@H](Cc1ccc(O)cc1)C(=O)N[C@@H](CC(N)=O)C(=O)N[C@@H](Cc1c[nH]c2ccccc12)C(=O)N[C@@H](CC(C)C)C(=O)N[C@H](C(=O)N[C@@H](CCCNC(=N)N)C(=O)N[C@@H](CCC(N)=O)C(=O)N[C@@H](CCCNC(=N)N)C(=O)N[C@@H](Cc1ccc(O)cc1)C(N)=O)[C@@H](C)O)C(C)C [Compound 142, N{alpha-4}-(3-methylbutanoyl)-N{epsilon-7}-(6-[(4S)-4-carboxy-4-(17-carboxyheptadecanamido)butanamido]hexanoyl)-[4A,7K,9E,13L,17I,18Q,22V,28Y,30W,31L]-hPYY(4-36)] | >10.0 | >10.0 | 3.97
